In patent US20160374944A1, “COMPOSITIONS AND METHODS FOR TREATING AND PREVENTING CANCER BY TARGETING AND INHIBITING CANCER STEM CELLS” (priority 2011, published 2016):

Experiments:
Assay type in all cases: cell-based, human
Prostate CSCs = assay: cell viability, trypan blue, Vi-CELL analyzer; conditions: 3 days
Experimental: Prostate CSCs were treated with resveratrol (0-20 μM), curcumin (0-20 μM), honokiol (0-20 μM) and diallyl trisulphide (0-10 μM) for 3 days, and cell viability was measured by staining with trypan blue using Vi-CELL analyzer (Beckman Counter).
Prostate CSCs were treated with sulforaphane (0-20 μM), rottlerin (0-5 μM), EGCG (0-40 μM) and embelin (0-1 μM) for 3 days, and cell viability was measured by staining with trypan blue using Vi-CELL analyzer (Beckman Counter).
Prostate CSCs were treated with resveratrol (0-20 μM), curcumin (0-20 μM), honokiol (0-20 μM), and diallyl trisulphide (0-10 μM) for 3 days and cell viability was measured by staining with trypan blue using Vi-CELL analyzer. The results of those studies are illustrated in FIG. 25.
Prostate CSCs were treated with sulforaphane (0-20 μM), rottlerin (0-5 μM), EGCG (0-40 μM), and embelin (0-1 μM) for 3 days and cell viability was measured by staining with trypan blue using Vi-CELL analyzer. The results of those studies are illustrated in FIG. 26.

Pancreatic CSCs [1] = assay: spheroid formation and cell viability in spheroids (trypan blue); conditions: for cell viability in spheroids: EGCG 0-60 μM with or without quercetin 20 μM
Experimental: (A) Pancreatic CSCs were grown in six-well ultralow attachment plates (Corning Inc., Corning, N.Y.) at a density of 1,000 cells/ml in DMEM supplemented with 1% N2 Supplement (Invitrogen), 2% B27 Supplement (Invitrogen), 20 ng/ml human platelet growth factor (Sigma-Aldrich), 100 ng/ml EGF (Invitrogen) and 1% antibiotic-antimycotic (Invitrogen) at 37° C. in a humidified atmosphere of 95% air and 5% CO2 and treated with rottlerin (0-2 μM) for 7 days to obtain primary spheroids. At the end of incubation period, spheroids were collected, reseeded and treated with rottlerin for another week to obtain secondary spheroids. (B) Cell viability in spheroids was measured by trypan blue assay at the end of 7 and 14 days from the above experiment.
(§1) (A) Pancreatic CSCs were seeded in suspension and treated with EGCG (0-60 μM) for 7 days. Pictures of spheroids formed in suspension were taken by a microscope. (B) Pancreatic CSCs were seeded in suspension and treated with EGCG (0-60 μM) for 7 days. At the end of incubation period, spheroids were collected, and dissociated with Accutase (Innovative Cell Technologies, Inc.). For secondary spheroids, cells were reseeded and treated with EGCG (0-60 μM) for 7 days. Cell viability was measured by trypan blue assay. […] Pancreatic CSCs were seeded in soft agar and treated with various doses of EGCG and incubated at […] for 21 days. At the end of incubation period, colonies were counted.
(A) Pancreatic CSCs were treated with EGCG (0-60 μM) for 36 h. At the end of incubation period, cells were harvested and the expression of Nanog, Sox-2, c-Myc and Oct-4 was measured by the q-RT-PCR. […] Pancreatic CSCs were transduced with either scrambled shRNA or Nanog shRNA expressing lentiviral vector (pLKO.1), and cell lysates were collected and western blot analysis was performed using anti-Nanog antibody (data not shown). CSC/scrambled and CSC/Nanog shRNA were seeded as described above and treated with EGCG (0-60 μM). After 7 days, spheroids were collected and cell suspensions were prepared and viable cells were counted by trypan blue assay.
(§2) (A) Effects of EGCG and quercetin on spheroid and colony formation. […] CSCs were seeded in suspension and treated with EGCG (0-60 μM) with or without quercetin (20 μM) for 7 days. At the end of incubation period, all the spheroids were collected and resuspended. Cell viability was measured by trypan blue assay. […] Pancreatic CSCs were seeded in soft agar and treated with various doses of EGCG (0-60 μM) with or without quercetin (20 μM) and incubated at […] for 21 days. At the end of incubation period, colonies were counted. […] (B) Effects of EGCG and quercetin on invasion and migration. Upper panel, Matrigel invasion assay. CSCs were plated onto the Matrigel-coated membrane in the top chamber of the transwell and treated with EGCG (0-60 μM) with or without quercetin (20 μM) for 48 hrs. Cells invaded to the lower chambered were fixed with methanol, stained with crystal violet and counted. […] Lower panel, Transwell migration assay. Pancreatic CSCs were plated in the top chamber of the transwell and treated with EGCG (0-60 μM) with or without quercetin (20 μM) for 48 hrs. Cells migrated to the lower chambered were fixed with methanol, stained with crystal violet and counted. […] CSCs were seeded in suspension and treated with EGCG (0-60 μM) with or without quercetin (20 μM) for 7 days. At the end of incubation period, all the spheroids were collected.

Pancreatic CSCs [2] = assay: colony formation in soft agar; conditions: 21 days
Experimental: as §1, §2
At the end of incubation period, all the spheroids were collected and resuspended. Cell viability was measured by trypan blue assay. […] At the end of incubation period, colonies were counted.

Pancreatic CSCs [3] = assay: cell viability, trypan blue, Vi-CELL analyzer; conditions: 3 days
Experimental: Pancreatic CSCs were treated with resveratrol (0-20 μM), curcumin (0-20 μM), honokiol (0-20 μM) and diallyl trisulphide (0-20 μM) for 3 days, and cell viability was measured by staining with trypan blue using Vi-CELL analyzer (Beckman Counter).
Pancreatic CSCs were treated with sulforaphane (0-20 μM), rottlerin (0-2 μM), EGCG (0-60 μM) and embelin (0-5 μM) for 3 days, and cell viability was measured by staining with trypan blue using Vi-CELL analyzer (Beckman Counter).
(A) Pancreatic CSCs were treated with SAHA (3 and 5 μM) and 5-Aza-dc (2 and 4 μM) and cell viability was measured at 48 h by staining with trypan blue using Vi-CELL analyzer (Beckman Counter). (B) Pancreatic CSCs were untreated (a) or treated with SAHA (b) or 5-Aza-dC (c) for 48 h, and apoptosis was measured by staining with annexin-PI using Accuri Flow Cytometer. (C) Caspase-3/7 activity was measured in pancreatic CSCs treated with SAHA (0.5 and 2 μM) or 5-Aza-dC (1 and 3 μM) for 25 h.
Pancreatic CSCs were treated with resveratrol (0-20 μM), curcumin (0-20 μM), honokiol (0-20 μM), and diallyl trisulphide (0-20 μM) for 3 days and cell viability was measured by staining with trypan blue using Vi-CELL analyzer. The results of those studies are illustrated in FIG. 27.
Pancreatic CSCs were treated with sulforaphane (0-20 μM), rottlerin (0-2 μM), EGCG (0-60 μM), and embelin (0-5 μM) for 3 days and cell viability was measured by staining with trypan blue using Vi-CELL analyzer. The results of those studies are illustrated in FIG. 28.
Pancreatic CSCs were treated with SAHA […] Vorinostat (3 and 5 μM) and 5-Aza-2′-deoxycytidine (5-Aza-dC, 2 and 4 μM) and cell viability was measured at 48 hours by staining with trypan blue using Vi-CELL analyzer. The results of those studies are illustrated in FIG. 31A.

[4] = EGCG 0-60 μM with or without quercetin 20 μM

Structure (SMILES) | cell viability (Prostate CSCs) | CSC viability in spheroids (Pancreatic CSCs [1]; CSCs transduced with Nanog shRNA, EGCG 0-60 μM, 7 days) | CSC viability in spheroids (Pancreatic CSCs [1]; CSCs transduced with scrambled shRNA, EGCG 0-60 μM, 7 days) | cell viability in spheroids (Pancreatic CSCs [1]; 7 days) | growth (size) of spheroids in suspension (Pancreatic CSCs [1]; EGCG 0-60 μM, 7 days) | CSC viability in primary and secondary spheroids (Pancreatic CSCs [1]; EGCG 0-60 μM, 7 days each, trypan blue) | colony formation (Pancreatic CSCs [2]; [4]) | growth of colonies (Pancreatic CSCs [2]; EGCG) | cell viability (Pancreatic CSCs [3]) | colony formation (Pancreatic CSCs [2]; SFN with or without quercetin) | size of primary and secondary spheroids in suspension (Pancreatic CSCs [1]; rottlerin 0-2 μM, 7 and 14 days) | cell viability of spheroids (Pancreatic CSCs [1]; rottlerin 0-2 μM, 7 and 14 days, trypan blue)
O=C(O[C@@H]1Cc2c(O)cc(O)cc2O[C@@H]1c1cc(O)c(O)c(O)c1)c1cc(O)c(O)c(O)c1 [EGCG, epigallocatechin gallate] | inhibit cell viability | further enhanced the antiproliferative effects | inhibited CSC's viability in spheroids transduced with Nanog-scrambled shRNA in a dose-dependent manner | inhibited cell viability in spheroids, colony formation, migration and invasion by CSCs in a dose-dependent manner | inhibited the growth (size) of spheroids in suspension in a dose dependent manner | inhibited CSC's viability in primary and secondary spheroids in a dose-dependent manner | inhibited cell viability in spheroids, colony formation, migration and invasion by CSCs in a dose-dependent manner | inhibited the growth of colonies in a dose-dependent manner | inhibit cell viability |  |  | 
O=c1c(O)c(-c2ccc(O)c(O)c2)oc2cc(O)cc(O)c12 [quercetin] |  |  |  | effective alone |  |  | effective alone |  |  | effective alone |  | 
CC(=O)c1c(O)c(C)c(O)c(Cc2c(O)c3c(c(C(=O)/C=C/c4ccccc4)c2O)OC(C)(C)C=C3)c1O [rottlerin] | inhibit cell viability |  |  |  |  |  |  |  | inhibit cell viability |  | inhibited the size | inhibited
C[S+]([O-])CCCCN=C=S (stereo not shown) [sulforaphane] | inhibit cell viability |  |  |  |  |  |  |  | inhibit cell viability | inhibited the cell viability and colony formation of pancreatic CSCs in a dose-dependent manner |  | 
